Patent publication US12653191B2, “Active compound combinations” (Bayer Aktiengesellschaft, priority 2020, dated 2026)
Like-named read-outs stand apart in the source and are kept apart here.

Experiments:
Alternaria alternate = experiment: in vitro-Test with fungal microorganisms, Method A (tables A1-A12); assay type: cell-based, Alternaria alternata; conditions: Alternaria, applied alone, read-out: Efficacy %
In short: (§1)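 Test compound in methanol plus alkylaryl-polyglycol-ether emulsifier was dried into wells, then liquid potato dextrose medium containing spores or mycelium of the fungus was added. Plates were incubated at 20° C and 85% relative humidity; growth read at 620 nm after 3-5 days, efficacy relative to untreated control.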

Botrytis cinerea [1] = experiment: in vitro-Test with fungal microorganisms, Method A (tables B1-B14); assay type: cell-based; conditions: for inhibition of growth at 0.8 ppm / inhibition of growth at 4 ppm / inhibition of growth at 20 ppm: Botrytis cinerea
In short: as §1

Cercospora beticola [2] = experiment: in vitro-Test with fungal microorganisms, Method B (tables C11-C20); assay type: cell-based; conditions: Cercospora beticola, read-out: Efficacy %
In short: (§2)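 Steps: solvent evaporation leaves the compound coating the wells; fungus-inoculated liquid growth medium goes on top; absorbance at 600 nm is measured; incubation runs 3 to 7 days at 20° C. with 85% relative humidity. Inhibition is then read photometrically and expressed as efficacy against untreated control.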

[3] = system: Colletotrichum lindemuthianum; experiment: in vitro-Test with fungal microorganisms, Method A (tables D1-D8); assay type: cell-based; conditions: Colletotrichum lindemuthianum, read-out: Efficacy %
In short: as §1

Cordana musae [4] = experiment: in vitro-Test with fungal microorganisms, Method A (tables E1-E8); assay type: cell-based
In short: as §1

Diaporthe citri [5] = experiment: in vitro-Test with fungal microorganisms, Method A (tables F1-F11); assay type: cell-based; conditions: Diaporthe citri, applied alone, read-out: Efficacy
In short: as §1

Diaporthe citri [6] = experiment: in vitro-Test with fungal microorganisms, Method B (tables F12-F15); assay type: cell-based; conditions: Table F15
In short: as §2

Fusarium culmorum [7] = experiment: in vitro-Test with fungal microorganisms, Method A (tables G1-G4); assay type: cell-based; conditions: for inhibition of growth at 20 ppm / inhibition of growth at 0.8 ppm / inhibition of growth at 4 ppm: Fusarium culmorum, read-out: Efficacy
In short: as §1

Parastagonospora nodorum [8] = experiment: in vitro-Test with fungal microorganisms, Method A (tables H1-H4); assay type: cell-based
Experimental: Example: In Vitro-Test with Fungal Microorganisms
Wells of 96-well microtiter plates are filled with 10 μl of a preparation of test compound or compound combination in methanol+emulsifier alkylaryl-polyglycol-ether. Thereafter, the solvent is evaporated in a hood. At the next step, 100 μl of liquid potato dextrose medium is given into each well, that has been amended with an appropriate concentration of spores or mycelium suspension of the test fungus.
With the aid of a photometer, the extinction in all wells is measured at the wavelength of 620 nm.
The microtiter plates are incubated at 20° C. and 85% relative humidity. The inhibition of growth is determined again photometrically 3-5 days after the application. Efficacy is calculated in relation to the untreated control, 0% efficacy means fungal growth as high as in untreated control while 100% efficacy means no fungal growth is measured.
The data in tables A1 to A12, B1 to B14, C1 to C10, D1 to D8, E1 to E8, F1 to F11, G1 to G4, H1 to H4 and I1 to I5 were collected according to Method A. The data in tables A13 to A22, B15 to B18, C11 to C20, E9 to E16, F12 to F15, G5 to G15, H5 to H8, I6 to I11 and J1 to J11 were collected according to Method B.

Parastagonospora nodorum [9] = experiment: in vitro-Test with fungal microorganisms, Method B (tables H5-H8); assay type: cell-based; conditions: Parastagonospora nodorum, read-out: Efficacy
In short: as §2

[10] = system: Ustilago segetum var. avenae; experiment: in vitro-Test with fungal microorganisms, Method A (tables I1-I5); assay type: cell-based; conditions: alone, read-out: Efficacy %
In short: as §1

Colletotrichum coccodes = experiment: in vitro-Test with fungal microorganisms, Method B (tables J1-J11); assay type: cell-based; conditions: Colletotrichum coccodes, read-out: Efficacy %
In short: as §2

Alternaria alternata = experiment: in vitro-Test with fungal microorganisms, Method B (tables A13-A22); assay type: cell-based; conditions: Alternaria alternata, read-out: Efficacy
In short: as §2

Botrytis cinerea [11] = experiment: in vitro-Test with fungal microorganisms, Method B (tables B15-B18); assay type: cell-based; conditions: Botrytis cinerea, alone, read-out: Efficacy %
In short: as §2

Cercospora beticola [12] = experiment: in vitro-Test with fungal microorganisms, Method A (tables C1-C10); assay type: cell-based; conditions: Cercospora beticola, read-out: Efficacy %
In short: as §1

Cordana musae [13] = experiment: in vitro-Test with fungal microorganisms, Method B (tables E9-E16); assay type: cell-based; conditions: Neocordana musae, single active, 4 ppm; read-out: Efficacy
In short: as §2

Fusarium culmorum [14] = experiment: in vitro-Test with fungal microorganisms, Method B (tables G5-G15); assay type: cell-based; conditions: Fusarium culmorum, read-out: Efficacy
In short: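 Efficacy, relative to untreated control (0% = growth as in control, 100% = no growth), from photometric growth measurement at 600 nm after 3 to 7 days at 20° C., 85% relative humidity. Compound applied in methanol+emulsifier, solvent evaporated, then spore/mycelium-amended liquid medium added.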

[15] = system: Ustilago segetum var. avenae; experiment: in vitro-Test with fungal microorganisms, Method B (tables I6-I11); assay type: cell-based; conditions: 20 ppm; read-out: Efficacy %
In short: as §2

[16] = alone, 0.8 ppm, read-out: Efficacy %
[17] = single active compound, 0.8 ppm

CCCN(CC)CC1COC2(CCC(C(C)(C)C)CC2)O1 (stereo not drawn) [(1.020) spiroxamine, spiroxamine]
inhibition of growth at 0.8 ppm (Alternaria alternate; 0.8 ppm): 18% | inhibition of growth at 4 ppm (Alternaria alternate): 12% | inhibition of growth at 20 ppm (Alternaria alternate): 16% | inhibition of growth at 0.8 ppm (Botrytis cinerea [1]; 0.8 ppm, read-out: Efficacy): 0% | inhibition of growth at 4 ppm (Botrytis cinerea [1]; read-out: Efficacy): 0% | inhibition of growth at 20 ppm (Botrytis cinerea [1]; read-out: Efficacy): 18% | inhibition of growth at 0.8 ppm (Botrytis cinerea [1]; [16]): 0% | inhibition of growth at 20 ppm (Botrytis cinerea [1]; alone, read-out: Efficacy %): 14% | Efficacy % (Botrytis cinerea [1]; alone, 0.8 ppm): 0% | inhibition of growth at 4 ppm (Cercospora beticola [2]; single compound): 6% | inhibition of growth at 0.8 ppm ([3]; mixing partner alone, 0.8 ppm): 0% | inhibition of growth at 20 ppm ([3]; mixing partner alone, 20.0 ppm): 6% | inhibition of growth at 0.8 ppm ([3]; single active at 0.8 ppm): 0% | inhibition of growth at 4 ppm ([3]; single active at 4.0 ppm): 8% | inhibition of growth at 20 ppm ([3]; single active at 20.0 ppm): 0% | inhibition of growth at 20 ppm (Cordana musae [4]; Neocordana musae, mixing partner alone, 20.0 ppm, read-out: Efficacy %): 9% | Efficacy % (Cordana musae [4]; mixing partner alone, 0.8 ppm): 0% | inhibition of growth at 0.8 ppm (Diaporthe citri [5]; 0.8 ppm): 6% | inhibition of growth at 4 ppm (Diaporthe citri [5]): 8% | inhibition of growth at 20 ppm (Diaporthe citri [5]; 20.0 ppm): 0% | Efficacy (Diaporthe citri [6]; 4 ppm alone): 0% | Efficacy (Diaporthe citri [6]; 20 ppm alone): 4% | Efficacy (Fusarium culmorum [7]; 4.0 ppm, alone): 0% | inhibition of growth at 20 ppm (Fusarium culmorum [7]; 20.0 ppm, alone): 0% | Efficacy (Parastagonospora nodorum [8]; [17]): 2% | Efficacy (Parastagonospora nodorum [8]; single active compound, 4.0 ppm): 4% | Efficacy (Parastagonospora nodorum [8]; single active compound, 20.0 ppm): 7% | inhibition of growth at 0.8 ppm (Parastagonospora nodorum [9]; 0.8 ppm): 5% | inhibition of growth at 4 ppm (Parastagonospora nodorum [9]): 5% | inhibition of growth at 20 ppm (Parastagonospora nodorum [9]): 17% | inhibition of growth at 0.8 ppm [10]: 3% | inhibition of growth at 4 ppm [10]: 71% | inhibition of growth at 20 ppm [10]: 100% | inhibition of growth at 0.8 ppm (Colletotrichum coccodes; 0.8 ppm): 0% | inhibition of growth at 4 ppm (Colletotrichum coccodes; 4 ppm): 0% | inhibition of growth at 20 ppm (Colletotrichum coccodes): 0% | inhibition of growth at 0.8 ppm (Colletotrichum coccodes; applied alone, 0.8 ppm): 0% | inhibition of growth at 20 ppm (Colletotrichum coccodes; applied alone): 39%

O=C(NCCc1ncc(C(F)(F)F)cc1Cl)c1ccccc1C(F)(F)F [(2.005) fluopyram, Fluopyram]
inhibition of growth at 4 ppm (Alternaria alternate): 63% | inhibition of growth at 20 ppm (Alternaria alternate): 82% | inhibition of growth at 0.8 ppm (Alternaria alternata): 61% | inhibition of growth at 4 ppm (Alternaria alternata): 81% | inhibition of growth at 20 ppm (Alternaria alternata): 88% | inhibition of growth at 0.8 ppm (Alternaria alternata; single compound): 79% | inhibition of growth at 4 ppm (Alternaria alternata; single compound): 81% | inhibition of growth at 20 ppm (Alternaria alternata; single compound): 91% | inhibition of growth at 0.8 ppm (Botrytis cinerea [1]; 0.8 ppm, read-out: Efficacy): 69% | inhibition of growth at 4 ppm (Botrytis cinerea [1]; read-out: Efficacy): 72% | inhibition of growth at 20 ppm (Botrytis cinerea [1]; read-out: Efficacy): 100% | inhibition of growth at 0.8 ppm (Botrytis cinerea [1]; [16]): 65% | inhibition of growth at 4 ppm (Botrytis cinerea [1]; alone, read-out: Efficacy %): 75% | inhibition of growth at 20 ppm (Botrytis cinerea [1]; alone, read-out: Efficacy %): 75% | inhibition of growth at 0.8 ppm (Botrytis cinerea [11]; 0.8 ppm): 51% | inhibition of growth at 4 ppm (Botrytis cinerea [11]; 4 ppm): 79% | inhibition of growth at 20 ppm (Botrytis cinerea [11]; 20 ppm): 100% | inhibition of growth at 0.8 ppm (Cercospora beticola [12]; 0.8 ppm alone): 0% | inhibition of growth at 4 ppm (Cercospora beticola [12]; 4.0 ppm alone): 27% | inhibition of growth at 20 ppm (Cercospora beticola [12]; 20.0 ppm alone): 39% | inhibition of growth at 0.8 ppm (Cercospora beticola [2]): 31% | inhibition of growth at 4 ppm (Cercospora beticola [2]): 0% | inhibition of growth at 20 ppm (Cercospora beticola [2]): 56% | inhibition of growth at 0.8 ppm (Cercospora beticola [2]; single compound): 11% | inhibition of growth at 4 ppm (Cercospora beticola [2]; single compound): 0% | inhibition of growth at 20 ppm (Cercospora beticola [2]; single compound): 7% | inhibition of growth at 20 ppm ([3]; single active at 20.0 ppm): 23% | inhibition of growth at 0.8 ppm (Cordana musae [4]; Neocordana musae, single substance, 0.8 ppm, read-out: Efficacy %): 0% | inhibition of growth at 4 ppm (Cordana musae [4]; Neocordana musae, single substance, 4.0 ppm, read-out: Efficacy %): 1% | inhibition of growth at 4 ppm (Cordana musae [13]): 0% | inhibition of growth at 4 ppm (Diaporthe citri [5]): 15% | inhibition of growth at 0.8 ppm (Fusarium culmorum [7]; 0.8 ppm, alone): 0% | inhibition of growth at 4 ppm (Fusarium culmorum [7]; 4.0 ppm, alone): 0% | inhibition of growth at 20 ppm (Fusarium culmorum [7]; 20.0 ppm, alone): 16% | inhibition of growth at 0.8 ppm (Fusarium culmorum [7]; Table G1, 0.8 ppm alone): 0% | inhibition of growth at 4 ppm (Fusarium culmorum [7]; Table G1, 4.0 ppm alone): 0% | inhibition of growth at 20 ppm (Fusarium culmorum [7]; Table G1, 20.0 ppm alone): 21% | inhibition of growth at 4 ppm (Fusarium culmorum [14]; 4 ppm, alone): 21% | inhibition of growth at 0.8 ppm (Fusarium culmorum [14]; [17]): 20% | inhibition of growth at 20 ppm (Fusarium culmorum [14]; single active compound, 20 ppm): 37% | Efficacy (Parastagonospora nodorum [8]; 0.8 ppm): 37% | Efficacy (Parastagonospora nodorum [8]; 4.0 ppm): 44% | Efficacy (Parastagonospora nodorum [8]; 20.0 ppm): 70% | inhibition of growth at 4 ppm (Parastagonospora nodorum [9]): 35% | inhibition of growth at 20 ppm (Parastagonospora nodorum [9]): 59% | inhibition of growth at 0.8 ppm [10]: 9% | inhibition of growth at 4 ppm [10]: 10% | inhibition of growth at 20 ppm [10]: 10% | inhibition of growth at 20 ppm [15]: 20% | inhibition of growth at 4 ppm (Colletotrichum coccodes; 4 ppm): 14% | inhibition of growth at 0.8 ppm (Colletotrichum coccodes; single active compound at 0.8 ppm): 0% | inhibition of growth at 4 ppm (Colletotrichum coccodes; single active compound at 4 ppm): 0%
